Experimental data reported in patent US20190212325A1, “AN EX VIVO METHOD FOR TESTING CELLULAR RESPONSEIVENESS OF PRIMARY CELL POPULATIONS TO A DRUG OR COMBINATION OF DRUGS” (VIVIA BIOTECH, S.L, priority 2015, published 2019).

Assays:
primary CLL cells = test: Ex vivo viability (Annexin V) and proliferation (CFDA) of primary CLL cells with AE, HS-5 stroma and CpG+IL-2, drug dose response; format: cell-based; conditions: 96 hours, 1.6% AE, 10% Human Serum, HS-5 100:1, CpG ODN + IL-2, 8 concentrations
primary MM cells = test: Ex vivo viability (Annexin V) and proliferation (CFDA) of primary MM cells in whole BM with AE (autologous plasma), lenalidomide dose response; format: cell-based, human; conditions: 96 hours, 20% autologous plasma (AE)
Description: Patient whole BM was obtained and prepared as indicated above for each sample type. The Vybrant® CFDA SE Cell Tracer Kit (Molecular Probes) was used to measure cell proliferation as it has been disclosed in Example 3. After the CFDA protocol, all samples were resuspented in Culture Medium+Zell Shield (Labclinics)+L-Glu (Lonza)+20% FBS. Condition A samples stayed as is, condition B samples had different concentrations of autologous MM plasma plus RBCs added and condition C samples received 20% autologous plasma. The final cell concentration ranged from 20 cells/μl to 70 cells/μl. Alternatively, the autologous plasma can be replaced with a pool of three MM plasmas.
The CFDA labeled plasmatic cells were dispensed into 96-well plates (60 μl/well) and incubated at 37° C. with 5% CO2 during 72 or 96 hours. For analysis, MM cells (assessed by monoclonal antibodies) were tested for both viability (Annexin-V staining) and proliferation (CFDA).
After 96 hours of culture, the CFDA staining in conjunction with the immunophenotyping allowed for the analysis of both viability (Annexin-V negative) and proliferation (CFDA peaks) of the plasmatic cells, following the previously described methods using Vivia's ExviTech platform.
As the number of MM cells detected after 96 hours of incubation was too low in just a single well, a pooled well assay was performed, obtaining sample from 4 wells that have been treated in an identical manner. […] According to this, and based on the initial cell count, calculation of the sample volume was done for plating between 1000 and 4000 live pathological MM cells per well. During acquisition, sample from four wells was obtained for each treatment, thus obtaining a minimum of 4000 and a maximum of 16000 live plasmatic cells. The results of these experiments indicate that the use of patient's whole bone marrow plus 20% of autologous plasma, or a pool of at least 3 MM plasmas (Condition C from above) and the use of IMDM culture medium provided the best conditions to achieve better MM cells viability and higher proliferation rates (data not shown). Additionally, the presence of either of the two human stromal cell lines, HS27a and HS5, appeared to have a negative effect on both viability and proliferation.
Some drugs used to treat tumor cells preferentially target cells that are actively proliferating, acting as anti-proliferative agents. An example of this is the use of lenalidomide to treat patients diagnosed with MM. The efficacy of lenalidomide is difficult to assess in ex vivo assays against MM primary tumor cells, as these cells have very low levels of proliferation under the conditions that have traditionally been used. In this example, we tested BM samples from 10 patients diagnosed with MM in our ex vivo assay. AE (plasma only) was added to the culture medium to increase levels of proliferation and lenalidomide was tested across a concentration range of 0.03 to 30 μM.
Whole BM from 10 MM patients was cultured in IMDM medium supplemented with 1% antibiotic, 1% L-Glutamine plus an additional 20% of autologous plasma (AE), for 96 hours. Samples were processed and analyzed as outlined in Example 12. MM cell viability (Annexin V) and proliferation (CFDA) were tested against 4 concentrations of Lenalidomide.

Row | SMILES | effect on Non-Proliferative (NP) Live Tumor Cells (survival index) (primary CLL cells; NP fraction) | inhibition of the proliferation, Proliferative (PR) cell fraction (survival index) (primary CLL cells; PR fraction) | effect on NP MM cells (survival index) (primary MM cells; sample 1, 0.03 to 30 μM) | effect on PR MM cells (survival index) (primary MM cells; sample 1, 0.03 to 30 μM) | PR cells eliminated (primary MM cells; sample 3) | NP cells eliminated (primary MM cells; sample 3, at a higher concentration) | potency against the PR population (primary MM cells; sample 3, low concentration) | effect in the NP population (primary MM cells; sample 6) | effect on the PR population (primary MM cells; sample 6) | effect against the PR cells (primary MM cells; sample 7) | effect on the NP cells (primary MM cells; sample 7, at a higher concentration)
1 | CC[C@H](Nc1ncnc2[nH]cnc12)c1nc2cccc(F)c2c(=O)n1-c1ccccc1 [Idelalisib] | little effect | potent inhibition of the proliferation is observed in the low nM range | – | – | – | – | – | – | – | – | –
2 | Nc1cccc2c1CN(C1CCC(=O)NC1=O)C2=O (centres unmarked) [lenalidomide] | – | – | no effect | no effect | about 60% | about 20% | very potent | small effect | no effect | very potent and effective | effects the NP cells
